The source made the active and inactive calls.
Experiments:
[1] = target: Cytochrome P450 2C9 (Homo sapiens, UniProt P11712)
[2] = target: T1, Cytochrome P450 1A2 (Homo sapiens, UniProt P05177);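 also: PubChem cytochrome P450 panel assay, CYP1A2 panel member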
T1 sequence (P05177 whole entry): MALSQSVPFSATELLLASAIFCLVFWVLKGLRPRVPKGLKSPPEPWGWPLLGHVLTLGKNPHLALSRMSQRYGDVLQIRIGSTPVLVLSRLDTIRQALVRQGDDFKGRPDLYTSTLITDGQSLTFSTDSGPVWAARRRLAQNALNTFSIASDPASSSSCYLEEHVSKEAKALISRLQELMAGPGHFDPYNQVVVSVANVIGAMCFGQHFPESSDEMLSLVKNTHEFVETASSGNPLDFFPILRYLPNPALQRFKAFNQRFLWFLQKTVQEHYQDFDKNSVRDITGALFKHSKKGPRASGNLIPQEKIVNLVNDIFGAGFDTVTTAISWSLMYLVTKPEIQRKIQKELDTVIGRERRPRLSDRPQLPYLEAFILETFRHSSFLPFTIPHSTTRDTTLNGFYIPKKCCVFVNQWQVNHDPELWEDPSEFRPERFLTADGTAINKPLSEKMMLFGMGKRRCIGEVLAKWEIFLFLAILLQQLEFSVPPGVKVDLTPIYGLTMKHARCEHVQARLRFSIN

[3] = blockers of CRF-binding protein–CRF-R2 complex – cell-based, uHTS hits, 384-well, dose response (AID 651639); assay type: functional, Homo sapiens; settings: read-out: IC50_Mean
[4] = target: T2, Corticotropin-releasing factor receptor 2/Corticotropin-releasing factor-binding protein (Homo sapiens, UniProt P24387+Q13324); assay: activators of CRF receptor 2 with binding protein – uHTS hits, confirmation (AID 602473); assay type: functional; settings: read-out: EC50_Mean
T2 sequence (Q13324 whole entry): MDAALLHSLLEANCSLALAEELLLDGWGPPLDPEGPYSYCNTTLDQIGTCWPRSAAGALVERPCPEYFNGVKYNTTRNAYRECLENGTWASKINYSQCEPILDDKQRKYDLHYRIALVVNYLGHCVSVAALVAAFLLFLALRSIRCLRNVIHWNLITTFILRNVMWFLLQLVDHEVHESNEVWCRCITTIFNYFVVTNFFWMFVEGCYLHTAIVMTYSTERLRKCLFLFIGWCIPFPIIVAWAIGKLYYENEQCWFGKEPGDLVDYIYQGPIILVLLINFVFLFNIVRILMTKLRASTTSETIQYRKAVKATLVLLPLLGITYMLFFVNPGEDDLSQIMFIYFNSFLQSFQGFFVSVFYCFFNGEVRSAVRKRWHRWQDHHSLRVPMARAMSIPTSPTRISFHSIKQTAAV
T2 sequence (P24387 whole entry): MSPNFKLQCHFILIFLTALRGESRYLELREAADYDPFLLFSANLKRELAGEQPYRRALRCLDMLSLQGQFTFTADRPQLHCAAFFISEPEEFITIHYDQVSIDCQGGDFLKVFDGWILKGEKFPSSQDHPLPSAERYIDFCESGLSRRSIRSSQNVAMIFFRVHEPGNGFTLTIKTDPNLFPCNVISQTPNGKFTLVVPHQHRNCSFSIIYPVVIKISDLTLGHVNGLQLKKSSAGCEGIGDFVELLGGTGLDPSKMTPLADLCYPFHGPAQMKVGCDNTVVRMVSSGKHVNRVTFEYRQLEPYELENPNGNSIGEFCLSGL

[5] = target: T2, Corticotropin-releasing factor receptor 2/Corticotropin-releasing factor-binding protein; assay: Dose Response confirmation of uHTS hits for small molecule antagonists of the CRF-binding protein and CRF-R2 receptor complex.; assay type: functional; settings: read-out: IC50_Mean
[6] = system: Vero; assay: viability of Vero cells under compound – cytotoxicity control for flavivirus capping enzyme inhibitors (AID 588742); assay type: functional; settings: Chlorocebus sabaeus
[7] = target: Genome polyprotein (dengue virus type 2, UniProt P29990); assay: flavivirus cap methylation enzyme inhibition – biochemical, confirmation dose response, primary screen (AID 588689); assay type: functional
Chain of Genome polyprotein (P29990 2492-3391 limits assumed): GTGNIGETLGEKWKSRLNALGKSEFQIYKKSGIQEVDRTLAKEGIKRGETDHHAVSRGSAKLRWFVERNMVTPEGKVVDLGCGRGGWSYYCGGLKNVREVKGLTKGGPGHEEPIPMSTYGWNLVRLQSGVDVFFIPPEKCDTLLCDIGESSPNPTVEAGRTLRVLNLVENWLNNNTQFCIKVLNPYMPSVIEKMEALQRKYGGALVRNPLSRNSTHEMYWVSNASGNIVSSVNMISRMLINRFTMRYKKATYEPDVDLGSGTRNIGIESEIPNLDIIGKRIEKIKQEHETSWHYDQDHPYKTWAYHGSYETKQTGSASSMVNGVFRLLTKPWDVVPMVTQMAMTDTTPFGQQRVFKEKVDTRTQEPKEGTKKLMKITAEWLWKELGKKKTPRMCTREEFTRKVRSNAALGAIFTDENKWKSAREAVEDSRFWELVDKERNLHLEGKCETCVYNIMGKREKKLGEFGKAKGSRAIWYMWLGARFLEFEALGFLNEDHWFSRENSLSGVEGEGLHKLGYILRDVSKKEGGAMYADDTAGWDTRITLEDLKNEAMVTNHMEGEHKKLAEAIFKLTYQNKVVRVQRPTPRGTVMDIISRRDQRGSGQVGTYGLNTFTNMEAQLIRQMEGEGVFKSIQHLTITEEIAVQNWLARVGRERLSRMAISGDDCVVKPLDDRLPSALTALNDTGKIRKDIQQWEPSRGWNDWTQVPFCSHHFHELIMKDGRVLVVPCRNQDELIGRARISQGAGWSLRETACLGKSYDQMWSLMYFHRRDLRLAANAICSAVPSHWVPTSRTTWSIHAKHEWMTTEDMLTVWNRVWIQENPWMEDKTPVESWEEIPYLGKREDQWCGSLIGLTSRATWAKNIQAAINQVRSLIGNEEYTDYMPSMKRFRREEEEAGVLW

[8] = target: T3, Type-1 angiotensin II receptor (Homo sapiens, UniProt P30556); assay: antagonism of angiotensin II type 1 receptor – cell-based, uHTS hits, selectivity assay for APJ receptor antagonist project, dose response (AID 463214); assay type: functional;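 also: antagonist potency against angiotensin II stimulated AT1 response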
T3 sequence (P30556 whole entry): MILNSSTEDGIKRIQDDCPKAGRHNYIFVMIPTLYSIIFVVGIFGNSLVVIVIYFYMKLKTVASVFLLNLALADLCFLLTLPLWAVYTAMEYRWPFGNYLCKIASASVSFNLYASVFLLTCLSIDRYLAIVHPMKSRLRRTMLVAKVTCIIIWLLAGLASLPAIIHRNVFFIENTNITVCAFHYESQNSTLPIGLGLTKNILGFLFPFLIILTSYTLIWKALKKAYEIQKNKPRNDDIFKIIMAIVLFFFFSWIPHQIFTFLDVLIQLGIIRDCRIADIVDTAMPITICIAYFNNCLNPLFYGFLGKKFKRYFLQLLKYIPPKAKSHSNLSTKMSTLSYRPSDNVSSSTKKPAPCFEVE

[9] = target: Beta-galactosidase (Escherichia coli, UniProt Q8VNN2); assay: PubChem AID 485352; assay type: functional
Chain of Beta-galactosidase (Q8VNN2 whole entry): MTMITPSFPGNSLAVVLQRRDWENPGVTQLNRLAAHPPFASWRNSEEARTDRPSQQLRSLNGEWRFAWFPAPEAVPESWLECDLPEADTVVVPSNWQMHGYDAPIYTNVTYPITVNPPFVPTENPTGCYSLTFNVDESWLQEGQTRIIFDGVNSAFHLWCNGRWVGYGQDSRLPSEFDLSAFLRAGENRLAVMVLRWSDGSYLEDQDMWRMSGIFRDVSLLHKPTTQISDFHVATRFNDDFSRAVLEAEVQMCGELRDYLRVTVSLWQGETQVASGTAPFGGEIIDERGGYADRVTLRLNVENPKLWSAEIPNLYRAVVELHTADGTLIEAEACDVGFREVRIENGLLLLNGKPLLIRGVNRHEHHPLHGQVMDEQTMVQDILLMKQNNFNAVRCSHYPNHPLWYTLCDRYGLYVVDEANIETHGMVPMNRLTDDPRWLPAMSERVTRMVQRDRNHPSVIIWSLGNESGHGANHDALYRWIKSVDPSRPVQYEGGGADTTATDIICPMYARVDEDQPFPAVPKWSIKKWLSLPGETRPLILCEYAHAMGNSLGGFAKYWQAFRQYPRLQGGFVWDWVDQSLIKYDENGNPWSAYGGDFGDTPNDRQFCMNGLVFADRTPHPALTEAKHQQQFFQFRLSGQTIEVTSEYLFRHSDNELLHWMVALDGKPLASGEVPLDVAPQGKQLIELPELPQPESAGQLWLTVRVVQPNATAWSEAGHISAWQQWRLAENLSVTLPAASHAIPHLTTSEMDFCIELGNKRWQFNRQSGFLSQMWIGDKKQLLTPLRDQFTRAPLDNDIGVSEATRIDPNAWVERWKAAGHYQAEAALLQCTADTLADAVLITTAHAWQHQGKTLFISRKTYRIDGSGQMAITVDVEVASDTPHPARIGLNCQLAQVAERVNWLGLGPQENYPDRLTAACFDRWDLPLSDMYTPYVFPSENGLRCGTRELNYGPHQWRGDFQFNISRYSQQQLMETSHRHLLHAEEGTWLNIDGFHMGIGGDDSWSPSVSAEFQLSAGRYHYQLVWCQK

[10] = system: HEK293; assay: EBV LMP1 TES2 canonical NF-kB signalling blockers – cell-based, HEK293, luciferase, cherry-pick, dose response (AID 588343); assay type: functional; settings: Homo sapiens
[11] = target: Cytochrome P450 2D6 (Homo sapiens, UniProt P10635);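 also: CYP2D6 member of a cytochrome P450 panel assay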
Chain of Cytochrome P450 2D6 (P10635 whole entry): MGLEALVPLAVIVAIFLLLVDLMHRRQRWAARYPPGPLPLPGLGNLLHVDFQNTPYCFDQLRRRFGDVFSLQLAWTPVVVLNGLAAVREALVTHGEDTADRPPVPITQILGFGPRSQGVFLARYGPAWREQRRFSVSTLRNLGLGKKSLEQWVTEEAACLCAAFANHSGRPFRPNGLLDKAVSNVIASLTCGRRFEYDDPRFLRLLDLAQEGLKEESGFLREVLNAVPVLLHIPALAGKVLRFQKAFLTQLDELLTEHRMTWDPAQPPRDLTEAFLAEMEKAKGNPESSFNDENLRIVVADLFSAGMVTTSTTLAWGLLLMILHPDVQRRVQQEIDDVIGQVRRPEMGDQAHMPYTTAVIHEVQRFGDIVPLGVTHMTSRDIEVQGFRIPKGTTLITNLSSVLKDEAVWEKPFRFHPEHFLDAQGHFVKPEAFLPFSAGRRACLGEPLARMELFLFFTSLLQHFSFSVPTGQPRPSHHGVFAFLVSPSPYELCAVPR

[12] = system: BJ; assay: cells; assay type: functional, cell-based; settings: Homo sapiens
[13] = system: BJ; assay: BJ-TERT-LT-ST fibroblast viability loss – cell-based, RAS-independent, luminescence, dose response (AID 1935); assay type: functional; settings: Homo sapiens;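 also: BJ fibroblasts immortalized with TERT plus LT and ST oncogenes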
[14] = DRD fibroblast viability loss – cell-based, non-viral oncogenic, luminescence, dose response (AID 1934); assay type: functional; settings: Homo sapiens
[15] = system: BJ; assay: BJ-TERT fibroblast viability loss – cell-based, RAS-independent, luminescence, dose response (AID 1933); assay type: functional; settings: Homo sapiens
[16] = target: NAD-dependent protein deacylase sirtuin-5, mitochondrial (Homo sapiens, UniProt Q9NXA8); assay: sirtuin-5 deacylation blockers, concentration series – biochemical, fluorescence imaging, cherry-pick, set 5, dose response (AID 720591);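 also: desuccinylation of succinyl peptide AMC substrate read as fluorescence after trypsin release; potency of inhibitors that lower fluorescence and may act on trypsin instead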
Chain of NAD-dependent protein deacylase sirtuin-5, mitochondrial (Q9NXA8 whole entry): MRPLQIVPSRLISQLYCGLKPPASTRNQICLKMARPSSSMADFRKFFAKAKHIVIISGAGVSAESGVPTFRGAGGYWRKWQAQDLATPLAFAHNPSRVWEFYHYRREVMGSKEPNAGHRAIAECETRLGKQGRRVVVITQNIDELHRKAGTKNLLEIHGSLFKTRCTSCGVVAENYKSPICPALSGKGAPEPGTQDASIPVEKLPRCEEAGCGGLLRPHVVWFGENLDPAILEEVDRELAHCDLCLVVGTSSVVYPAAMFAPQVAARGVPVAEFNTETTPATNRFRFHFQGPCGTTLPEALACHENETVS

[17] = target: T4, Rac GTPase-activating protein 1 (Homo sapiens, UniProt Q9H0H5); assay: blockers of MgcRacGAP-driven Rac1 GTP hydrolysis – biochemical, ADP Hunter fluorescence, primary and confirmatory, confirmation (AID 624330); assay type: functional
T4 sequence (Q9H0H5 whole entry): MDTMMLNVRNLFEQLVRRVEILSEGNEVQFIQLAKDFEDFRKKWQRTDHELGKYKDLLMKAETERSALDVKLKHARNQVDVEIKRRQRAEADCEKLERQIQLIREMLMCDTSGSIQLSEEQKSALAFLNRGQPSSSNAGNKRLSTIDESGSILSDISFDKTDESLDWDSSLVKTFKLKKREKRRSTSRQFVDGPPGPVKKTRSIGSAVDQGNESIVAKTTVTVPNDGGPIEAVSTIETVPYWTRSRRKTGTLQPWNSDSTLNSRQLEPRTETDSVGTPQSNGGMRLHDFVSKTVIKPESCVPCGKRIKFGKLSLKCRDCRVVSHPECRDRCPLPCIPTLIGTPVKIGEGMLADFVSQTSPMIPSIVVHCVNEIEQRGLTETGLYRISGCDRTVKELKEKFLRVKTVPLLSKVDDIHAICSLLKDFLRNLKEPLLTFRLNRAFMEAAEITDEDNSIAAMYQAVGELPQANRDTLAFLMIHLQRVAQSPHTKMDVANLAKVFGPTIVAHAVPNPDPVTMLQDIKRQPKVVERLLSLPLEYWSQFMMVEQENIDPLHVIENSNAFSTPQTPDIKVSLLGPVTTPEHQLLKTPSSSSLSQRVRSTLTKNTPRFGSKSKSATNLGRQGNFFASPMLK

[18] = off-target signal loss in HeLa-CEM21 co-culture – HeLa F-luc CTL cells, cherry-picked, counter-screen for HIV-1 Env fusion inhibitor project, dose response (AID 652040); assay type: functional, cell-based;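 also: potency for signal decrease marking cytotoxic or nonspecific inhibition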
[19] = HIV-1 AD8 envelope cell-cell fusion blockers – cherry-pick, dose response (AID 652062); assay type: functional, cell-based;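 also: luciferase signal from cell-cell fusion driven by HIV-1 clade B AD8 Env; potency is for inhibitors of fusion seen as a drop in luminescence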
[20] = blockers of HIV-1 envelope-mediated cell-cell fusion – cherry-pick, dose response (AID 652057); assay type: functional, cell-based
[21] = viability loss in CEM21 cells – cell-based, CellTiter-Glo luminescence, cherry-picked, cytotoxicity control for viral fusion inhibitor project, dose response (AID 652042); assay type: functional;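 also: potency for signal decrease meaning cytotoxicity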
[22] = blockers of HIV-1 ZM109 envelope-driven cell-cell fusion – HeLa effector, CEM target cells, luciferase, cherry-pick, dose response (AID 652058); assay type: functional, cell-based;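 also: luciferase signal from HIV-1 Env mediated cell-cell fusion of effector and target cells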

Chain of Cytochrome P450 2C9 (P11712 whole entry): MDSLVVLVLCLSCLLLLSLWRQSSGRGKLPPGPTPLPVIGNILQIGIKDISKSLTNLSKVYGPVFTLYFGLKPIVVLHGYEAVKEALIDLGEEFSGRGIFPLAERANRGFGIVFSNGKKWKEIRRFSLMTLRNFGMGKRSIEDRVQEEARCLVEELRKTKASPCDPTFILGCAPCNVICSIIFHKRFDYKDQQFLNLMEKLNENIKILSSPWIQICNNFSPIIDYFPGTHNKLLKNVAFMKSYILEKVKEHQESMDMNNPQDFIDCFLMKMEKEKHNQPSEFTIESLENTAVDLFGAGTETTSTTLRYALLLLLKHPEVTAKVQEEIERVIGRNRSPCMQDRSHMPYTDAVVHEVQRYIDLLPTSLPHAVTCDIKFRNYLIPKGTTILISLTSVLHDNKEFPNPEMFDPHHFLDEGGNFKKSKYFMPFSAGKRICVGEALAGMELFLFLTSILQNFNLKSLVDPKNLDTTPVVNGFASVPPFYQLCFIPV

## O=C(c1coc(=O)c2ccccc12)N1CCN(Cc2ccccc2)CC1
[1]
  AC50: inconclusive
[2]
  AC50: 10 µM (inconclusive)

## Cc1nn(Cc2ccccc2)c(Cl)c1C(=O)NC1CCCc2ccccc21 (centres undefined)
[3]
  IC50: 11.9 µM (active)
[4]
  EC50: > 53 µM (inactive)
[5]
  IC50: 6.77 µM (active)

## CCOC(=O)c1sc(N2N=C(C)/C(=C\c3ccc(OCC(=O)OC)cc3)C2=O)nc1C
[6]
  CC50: 39.2 µM (active)
[7]
  IC50: 90.7 µM (active)

## CCCCNC(=S)NNC(=O)CCn1nc(C)c(Br)c1C
[8]
  IC50: > 40 µM (not active)
[1]
  AC50: inconclusive
[9]
  EC50: > 40 µM (inactive)

## CN(C)c1ccnc2sc(C(N)=O)c(N)c12
[10]
  AC50: 3.08 µM (active)

## Clc1ccccc1NN(Cc1ccncc1)c1ccccc1Cl
[3]
  IC50: > 20 µM (inactive)
[4]
  EC50: > 53 µM (inactive)
[11]
  AC50: 3.16 µM (inconclusive)
[5]
  IC50: < 0.368 µM (active)

## CC(C)OC(=O)c1ccccc1C(=O)c1ccc(N)c([N+](=O)[O-])c1
[12]
  EC50: > 150 µM (not active)
[13]
  EC50: > 150 µM (not active)
[14]
  EC50: > 150 µM (not active)
[3]
  IC50: > 20 µM (inactive)
[4]
  EC50: > 53 µM (inactive)
[15]
  EC50: > 150 µM (not active)
[5]
  IC50: 38.6 µM (active)

## COc1ccc(C(=O)Nc2cc(O)nc3ncnn23)cc1
[16]
  AC50: 8.75 µM (active)

## C=CCc1cc(OC)ccc1OCCN1CC(C)OC(C)C1 (centres undefined)
[17]
  IC50: 70.5 µM (active)
[16]
  AC50: > 30 µM (inactive)

## Cc1ccc(OCC(=O)NNC(=S)NC(=O)C2CCCCC2)c(C)c1
[10]
  AC50: 39.5 µM (active)

## Cc1ccc(NC(=O)CSc2nnc(Cn3cnc4ccccc43)o2)c(C)c1
[3]
  IC50: > 20 µM (inactive)
[4]
  EC50: > 53 µM (inactive)
[5]
  IC50: 5.69 µM (active)

## CCCCN(C)C(=O)c1coc(=O)c2ccccc12
[1]
  AC50: inconclusive
[2]
  AC50: 2.51 µM (inconclusive)

## O=C1c2ccccc2C(=O)c2cc(N3CCCCC3)ccc21
[10]
  AC50: 1.3 µM (active)

## COc1ccccc1CNC(=O)C1CCC(CNS(=O)(=O)c2ccc(F)cc2)CC1 (centres undefined)
[16]
  AC50: > 30 µM (inactive)

## COc1ccc(S(=O)(=O)N2CCN(C(S)=NCC3CCCO3)CC2)cc1OC (centres undefined)
[10]
  AC50: 268 µM (active)

## COc1cc(OC)nc(Nc2nc(C(N)COCc3ccccc3)cs2)n1 (centres undefined)
[18]
  AC50: 4.69 µM (active)
[19]
  AC50: 5.29 µM (active)
[20]
  AC50: 3.75 µM (active)
[21]
  AC50: 28.3 µM (active)
[22]
  AC50: 4.17 µM (active)

## Cc1ccc(-c2ccc3c(c2)O[C@H](CN(C)Cc2cccnc2)[C@@H](C)CN([C@H](C)CO)S3(=O)=O)cc1
[19]
  AC50: 23.8 µM (active)
[20]
  AC50: 27 µM (active)
[21]
  AC50: 13.7 µM (active)

## O=C(c1[nH]c(C(F)(F)F)nc1-c1ccccc1)N1CCCN(Cc2ccc(F)cc2)CC1
[16]
  AC50: > 30 µM (inactive)

## C/C(=N\NC(=O)CNc1cccc2ccccc12)c1ccc(Br)s1
[6]
  CC50: > 40 µM (active)

— ChEMBL document CHEMBL1201862, “PubChem BioAssay data set” (2004)
